Tests used:
[1] = tested on: rats; conditions: cited from earlier work
[2] = tested on: acute pain model in rats; assay: Analgesic effect (% MPE) after subarachnoid (i.t.) administration in an acute pain model in rats; format: in vivo, rat
[3] = tested on: rats with induced neuropathic pain; assay: Chronic constriction injury (CCI) neuropathic pain model, von Frey test, central (subarachnoid) administration; format: in vivo, rat
Protocol: In the next step of the study, the peptide was administered by the central (subarachnoid) route to rats with induced neuropathic pain (the model of neuropathic pain of loose ligation of the sciatic nerve according to Bennett [Bennett and Xie, 1988]) according to the method described by Yaksh & Rudy (Yaksh T. R., Rudy T. A., Physiol Behav. 17:1031-1036 (1976). In the first step, the level of pain experienced by rats with chronic pain was determined in comparison to healthy rats. The results of the test are shown in FIG. 5. The behavioral test consisted of measuring the level of allodynia on the pelvic, “sick” limb, where the time or strength of the irritating stimulus acting on the bottom of the foot were tested.
In the main test of the analgesic effect of the tested peptide, a single dose of the peptide was administered by the central route at predetermined time intervals. To that end, the compound was dissolved in physiological saline solution and administered by a Hamilton syringe to the rats on days 0, 4, 7, 14 of the experiment. Earlier studies let to establish that in our case, the effective dose of peptide for rats is 2.0 nmol/kg.
In the treatment of chronic pain, pharmacotherapy is based on repeated administration of the active substance, which is often associated with the occurrence of the tolerance and undesired side effects. Therefore, in the next step of the study, the analgesic compound was administered to the rats daily for a period of 14 days, FIG. 7.

[4] = tested on: mu opioid receptor (MOR); conditions: depending on the route of administration and the assay measuring analgesia; cited from earlier work
[5] = cited from earlier work
[6] = daily i.t. administration for 14 days

Structure (SMILES): C[C@@H](NC(=O)[C@@H](N)Cc1ccc(O)cc1)C(=O)NCC(=O)N[C@@H](Cc1ccccc1)C(=O)NNC(=O)[C@H](Cc1ccccc1)NC(=O)CNC(=O)[C@@H](C)NC(=O)[C@@H](N)Cc1ccc(O)cc1 [biphalin]
- effect after intravenous administration relative to morphine ([1]; animals, intravenous): corresponds to doses of morphine
- activity relative to morphine after administration into the subarachnoid space ([1]; rats, intrathecal): more than one thousand times more active than morphine

Structure (SMILES): C[C@@H](NC(=O)[C@H](CO)NC(=O)[C@@H]1CCCN1C(=O)[C@H](Cc1ccc(O)cc1)NC(=O)CNC(=O)[C@H](Cc1ccccc1)NC(=O)[C@@H](C)NC(=O)[C@@H](N)Cc1ccc(O)cc1)C(=O)N[C@@H](Cc1ccccc1)C(=O)O [peptide according to the invention, H2N-Tyr-D-Ala-Gly-Phe-Gly-Tyr-Pro-Ser-D-Ala-Phe-OH]
- analgesic effect at the threshold dose ([2]; i.t., 0.004 nmol/kg): active at a low but noticeable level
- duration of analgesic effect ([2]; i.t., 0.04 nmol/kg): 30 min
- duration of analgesic effect ([2]; i.t., 0.08 nmol/kg): 60 min
- activity in 60 and 120 min ([2]; i.t., 0.08 nmol/kg and 0.4 nmol/kg, 60 and 120 min): 60-70 % MPE
- analgesic potency compared to morphine ([2]; i.t., FIGS. 1-3): definitely more potent than morphine
- duration of maximum effects ([2]; i.t., highest doses 0.08 nmol/kg and 0.4 nmol/kg): up to 30 min
- analgesic effect compared to dermorphin at the lower dose ([2]; subarachnoid, 0.04 nmol/kg, first 30 minutes): slightly higher in the first 30 minutes than for dermorphin
- analgesic effect compared to dermorphin at the higher dose ([2]; subarachnoid, 0.4 nmol/kg, first 30 minutes): equipotent for the first 30 minutes
- analgesic potency compared to dermorphin ([2]; subarachnoid, equivalent doses 0.04 and 0.4 nmol/kg): as potent as dermorphin
- value of MPE maintained for 120 minutes after administration ([2]; subarachnoid, higher dose 0.4 nmol/kg, 120 min): 40%
- development of tolerance [3, 6]: did not develop tolerance
- general condition / undesired side effects (weight loss, hyperalgesia to touch, vocalization, hair shedding) [3, 6]: in good general physical condition
- hyperalgesia after long-term administration [3, 6]: did not induce hyperalgesia
- analgesic effect, daily administration, fourteenth day ([3]; daily i.t. administration, day 14, versus control group): did not induce its analgesic effect
- analgesic effect, daily administration, days 4 and 7 ([3]; daily i.t. administration, days 4 and 7, versus untreated group): highly analgesic
- effective dose of peptide for rats ([3]; rats, CCI model, central route): 2.0 nmol/kg
- analgesic effect, single dose ([3]; single dose i.t. on days 0, 4, 7, 14, result on days 4, 7 and 14 of pain induction, 2.0 nmol/kg): highly analgesic

Structure (SMILES): C[C@@H](NC(=O)[C@@H](N)Cc1ccc(O)cc1)C(=O)N[C@@H](Cc1ccccc1)C(=O)NCC(=O)N[C@@H](Cc1ccc(O)cc1)C(=O)N1CCC[C@H]1C(=O)N[C@@H](CO)C(N)=O [dermorphin, Dermorphin]
- potency relative to morphine [4]: 750-2200 times
- known stability in human or rat serum [5]: 170 to 190 min

Structure (SMILES): CN1CC[C@]23c4c5ccc(O)c4O[C@H]2[C@@H](O)C=C[C@H]3[C@H]1C5 [morphine, reference compound]
- equipotent dose relative to that of the peptide according to the invention ([2]; i.t.): approximately 100 times
- dose producing an effect similar to the peptide according to the invention ([2]; i.t., equipotent dose): 32.0 nmol/kg

— patent publication US20250002533A1, “PEPTIDE AND ITS USES” (INSTYTUT MEDYCYNY DOSW[…] […].MIROSLAWA MOSS[…] AKADEMII …, priority 2021, published 2025)
